Measured values as given in US12275734B1, “Pleuromutilin onium salt derivative containing a 3H-imidazo[4,5-c]pyridine side chain, and a preparation method and application thereof” (SHAANXI UNIVERSITY OF SCIENCE AND TECHNOLOGY, priority 2024, dated 2025).
Converted amounts (≈) assume the structure as drawn.

How the values were obtained:
A549 Cells = assay: Cytotoxicity, Cell Counting Kit-8; format: cell-based; details: human, 24 h
Procedure: (§1) Cell Counting Kit-8 was used to evaluate the cytotoxicity of the compounds.
(§2) (4) Cell culture: HepG2, HEK293 and A549 cells were evenly dispersed in culture medium, seeded into 96-well plates, and cultured under appropriate environmental conditions to keep the cells completely attached to the well walls.
(§3) (5) Compound treatment: Add different concentrations of compounds I-8 and I-9 to each well (the concentrations are 0.78, 1.56, 3.13, 6.25, 12.5, 25, 50 and 100 μM, respectively, and perform 6 parallel experiments). Set up a blank control group and a normal control group. After incubation for 24 hours, observe the cell condition, which observed under a microscope.
(§4) (6) CCK-8 solution treatment: Add CCK-8 solution to each well and incubate for 4 hours to allow it to react with the cells.
(§5) (7) Absorbance determination: Use a full-wavelength scanning multifunctional reader, place the 96-well plate in the instrument, oscillate to mix to make the color evenly distributed, and measure the absorbance value at 490 nm.
(§6) (8) Data analysis: Based on the measured absorbance values, the cell survival rate at different concentrations can be calculated. The median cytotoxic concentration was used to evaluate the cytotoxicity of the compound to A549, HEK293 and HepG2 cells.

HepG2 Cells = assay: Cytotoxicity, Cell Counting Kit-8; format: cell-based; details: human, 24 h
Procedure: as §1, §2, §3, §4, §5, §6

HEK293 Cells = assay: Cytotoxicity, Cell Counting Kit-8; format: cell-based; details: human, 24 h
Procedure: as §1, §2, §3, §4, §5, §6

[1] = tested on: Staphylococcus aureus (MRSA, ATCC 33591); assay: Mouse MRSA systemic infection model, H&E tissue sections; format: in vivo; details: MRSA-infected mice
Procedure: (§7) Establishment of a mouse model of MRSA systemic infection
(§8) (2) Pretreatment: All mice received cyclophosphamide treatment, with the first intraperitoneal injection of 150 mg/kg cyclophosphamide 4 days before infection and the second intraperitoneal injection of 100 mg/kg cyclophosphamide 1 day before infection.
(4) Infection process: Mice were anesthetized with isoflurane and infected by intraperitoneal injection of Staphylococcus aureus (MRSA, ATCC 33591) at a concentration of 10^7 CFU/mL. […]
(2) Processing: • (a) Time point: At the first hour after infection, mice in the experimental group received intraperitoneal injection of 0.5 mL of compounds of different concentrations, while mice in the control group received the same volume of solvent. • (b) Treatment time: […]
Part II: The samples were fixed with 10% formalin buffer, then embedded in paraffin and sectioned. The sections were stained with hematoxylin and eosin (H&E) and then examined under an optical microscope.

[2] = tested on: Staphylococcus aureus (MRSA, ATCC 33591); assay: Mouse MRSA systemic infection model, survival rate; format: in vivo; details: MRSA-infected mice, 5, 10, 20 mg/kg single intraperitoneal injection 1 hour after infection, 7-day survival
Procedure: as §7
(1) Solution preparation and bacterial activation: Reference Example 15.
as §8
(3) Control group treatment: Mice in the blank control group received intraperitoneal injection of 0.9% saline.
(4) Infection process: Mice were anesthetized with isoflurane and infected by intraperitoneal injection of Staphylococcus aureus (MRSA, ATCC 33591) at a concentration of 10^7 CFU/mL.
(1) Experimental groups: The doses of compound i and valnemulin were 5, 10, and 20 mg/kg, respectively (the solvent was dimethyl sulfoxide: Tween-80: sterile water=1:0.5:9.5);
A model control group (administered with a solvent after infection with bacteria) and a blank control group (administered with a solvent only without infection with bacteria) were set up, with 10 mice in each group, half of which were male and half were female.
(2) Time point: Intraperitoneal injection was performed in the experimental group mice at 1 hour after infection.
(3) Therapeutic dose: The mice in the experimental groups received intraperitoneal injection of 0.5 mL of compound i and valnemulin at different concentrations. […]

E. coli ATCC 25922 = assay: MIC, broth microdilution; format: cell-based; details: Escherichia coli, ATCC25922, read-out: Minimum inhibitory concentration E.c.^h
Procedure: (§9) The minimum inhibitory concentration of 3H-imidazo[4,5-C]pyridine pleuromutilin onium salt derivatives against the tested pathogenic microorganisms were determined by broth microdilution method, with valnemulin and retapamulin as positive controls.
(§10) The experimental strains included resistant Gram-positive bacteria: Methicillin-resistant S. aureus ATCC 33591; Methicillin-resistant S. aureus ATCC 43300; S. aureus ATCC 29213; Methicillin-resistant S. epidermidis ATCC 51625. Resistant Gram-negative bacteria: A. baumannii ATCC 19606; S. enterica ATCC14028; E. coli ATCC 25922; E. coli CMCC 44103. 9 clinically isolated resistant strains: MRSA-171; MRSA-575; MRSA-206; MRSA-222; MRSA-596; VRE-80; MDR-PA-126; MDR-KP-893; CR-AB-882.
(§11) (1) Preparation of MHB medium: Weigh 18.0 g of MHB medium pre-made powder, add it to 1 L of distilled water, heat and boil until completely dissolved, divide it into conical bottles, sterilize it by high pressure at 121° C. for 15 minutes, and set aside.
(§12) (2) Cultivate the experimental strain to the logarithmic growth phase: Under sterile conditions, inoculate the experimental strain into fresh MHB medium and culture it in a 37° C. constant temperature and humidity incubator for 16-24 hours. Adjust the bacterial solution concentration to 1.5×10^8 CFU/mL and then dilute it 200 times for later use.
(§13) (3) Preparation of storage solution: Weigh the sample to be tested, dissolve it in 1% DMSO solution, and prepare a storage solution with a concentration of 2560 μg/mL; weigh the positive control, dissolve it in sterile distilled water, and prepare a storage solution with a concentration of 2560 μg/mL.
(§14) (4) Preparation of bacterial suspension: Under sterile conditions, the experimental strain cultured to the logarithmic growth phase was calibrated to a 0.5 McFarland unit turbidity standard using MHB medium and then diluted at a ratio of 1:200 to prepare a bacterial suspension with a concentration of 5×10^5 CFU/mL for later use.
(§15) (5) Determination of MIC by two-fold microdilution method: Take a sterile 96-well plate, add 10 μL of the test compound at a concentration of 2560 μg/mL, and perform serial dilutions by the two-fold dilution method. At the same time, set up a negative control group without drug. Then add 190 μL of diluted bacterial solution to each well, so that the final bacterial solution concentration in each well is 5×10^5 CFU/mL, and incubate in a 37° C. constant temperature and humidity chamber for 24 hours.

A. baumannii ATCC 19606 = assay: MIC, broth microdilution; format: cell-based; details: Acinetobacter baumannii, ATCC19606, read-out: Minimum inhibitory concentration A.b.^f
Procedure: as §9, §10, §11, §12, §13, §14, §15

S. enterica ATCC14028 = assay: MIC, broth microdilution; format: cell-based; details: Salmonella enterica, ATCC14028, read-out: Minimum inhibitory concentration S.e.^g
Procedure: as §9, §10, §11, §12, §13, §14, §15

S. aureus ATCC 29213 = assay: MIC, broth microdilution; format: cell-based; details: Staphylococcus aureus, ATCC29213, read-out: Minimum inhibitory concentration S.a.^d
Procedure: as §9, §10, §11, §12, §13, §14, §15

E.coli CMCC 44103 = assay: MIC, broth microdilution; format: cell-based; details: Escherichia coli, CMCC44103, read-out: Minimum inhibitory concentration E.c.^i
Procedure: as §9, §10, §11, §12, §13, §14, §15

[3] = tested on: Methicillin-resistant S. epidermidis ATCC 51625; assay: MIC, broth microdilution; format: cell-based; details: Staphylococcus epidermidis, ATCC 51625 / MRSE, read-out: Minimum inhibitory concentration MRSE^e
Procedure: as §9, §10, §11, §12, §13, §14, §15

[4] = tested on: Methicillin-resistant S. aureus ATCC 33591; assay: MIC, broth microdilution; format: cell-based; details: Staphylococcus aureus, ATCC 33591 / MRSA, read-out: Minimum inhibitory concentration MRSA^b
Procedure: as §9, §10, §11, §12, §13, §14, §15

[5] = tested on: Methicillin-resistant S. aureus ATCC 43300; assay: MIC, broth microdilution; format: cell-based; details: Staphylococcus aureus, ATCC 43300 / MRSA, read-out: Minimum inhibitory concentration MRSA^c
Procedure: as §9, §10, §11, §12, §13, §14, §15

[6] = 5 mg/kg compound i, intraperitoneal

SMILES: C=C[C@]1(C)C[C@@H](OC(=O)CSC(C)(C)CNC(=O)[C@H](N)C(C)C)[C@]2(C)[C@H](C)CC[C@]3(CCC(=O)[C@H]32)[C@@H](C)[C@@H]1O [Valnemulin, reference compound]
- CC50 (A549 Cells): 53.7 µM
- CC50 (HepG2 Cells): 77.3 µM
- CC50 (HEK293 Cells): 65.4 µM
- kidney H&E histology [1, 6]: inflammatory cell infiltration was still observed
- liver H&E histology [1, 6]: still had inflammatory cell infiltration
- lung H&E histology [1, 6]: alleviated, but they still did not return to normal
- spleen H&E histology ([1]; 5 mg/kg, after 7 days of treatment): immune response was weakened
- survival rate of mice [2]: improved
- MIC (E. coli ATCC 25922): 16 µg/mL (≈ 28.3 µM)
- MIC (A. baumannii ATCC 19606): 2 µg/mL (≈ 3.54 µM)
- MIC (S. enterica ATCC14028): 64 µg/mL (≈ 113 µM)
- MIC (S. aureus ATCC 29213): 4 µg/mL (≈ 7.08 µM)
- MIC (E.coli CMCC 44103): 64 µg/mL (≈ 113 µM)
- MIC [3]: 64 µg/mL (≈ 113 µM)
- MIC [4]: 64 µg/mL (≈ 113 µM)
- MIC [5]: 8 µg/mL (≈ 14.2 µM)
